US20120190752A1, “EXO-S-MECAMYLAMINE METHOD, USE, AND COMPOUND FOR TREATMENT” (Targacept Inc., priority 2009, published 2012)

Tested on: subjects with major depressive disorder (MDD) who were inadequate responders to citalopram
Experiment: Individual MADRS factor (subscale) scores, exploratory analysis
Assay type: in vivo, human
Method: In more detail, a multi-center double-blind, randomized, placebo-controlled, parallel group, flexible dose titration study of TC-5214 as adjunctive therapy in subjects with major depressive disorder (MDD) who were inadequate responders to citalopram was conducted in centers in the US and India. The study consisted of a screening period, baseline/washout period, open-label phase, double-blind phase, and a follow-up visit. Subject participation in the study could continue for up to 16 weeks of treatment. Following a washout period of up to 28 days for other antidepressants, subjects with MDD and a MADRS total score >/=28 and a Clinical Global Impression-Severity (CGI-S) score >/=4 were enrolled on Day 1 into an open-label citalopram-only phase of the study. This phase lasted 8 weeks, with citalopram (CIT) dose increased from a once-daily dose of 20 mg (Day 1 through Week 4) to 40 mg (Week 4 through Week 8). A total of 579 subjects entered the open-label citalopram phase. At Week 8, subjects who tolerated 40 mg CIT, but whose MADRS score was reduced <50% from baseline and no lower than 17, and CGI-S≧4, were considered inadequate responders. These subjects (n=270) were randomized in a double-blind fashion to receive either placebo or TC-5214-23 as add-on therapy to continued CIT. The double-blind phase of the study also lasted 8 weeks (Week 8 to Week 16). Study drug, TC-5214-23 or placebo, was started at 2 mg daily (1 mg twice per day [BID] dosing), added on to continuing CIT (40 mg PO qd). After 2 weeks of treatment, the dose of TC-5214 could be increased to 4 mg (2 mg BID) or continued unchanged, with up-titration based upon good tolerability and inadequate therapeutic response. After a further 2 weeks, the dose of TC-5214 could be increased again to 8 mg (4 mg BID) if judged appropriate by the investigator, based upon good tolerability and inadequate therapeutic response. At any time during the double-blind phase of the study, placebo or TC-5214-23 could be reduced to the previous dose level following the emergence of unacceptable adverse events (AEs). […] At this follow-up, any signs or symptoms of relapse were evaluated. If a subject was prematurely discontinued from the study between Week 8 and Week 16 for any reason, the investigator was to make every effort to perform all evaluations as per protocol, assuming the subject had reached the end of the double-blind add-on treatment phase. These evaluations were to be made as soon as possible and within 2 weeks of discontinuation. […] There was no meaningful difference in results as a function of age, gender, site, or smoking status. The exploratory analysis assessed the differences in the treatment groups in change from Week 8 (double-blind baseline) to Week 16 for each individual MADRS factor score.

[1] = ITT population, Week 8 (double-blind baseline) to Week 16

## CNC1(C)C2CCC(C2)C1(C)C (stereo in doubt) [TC-5214, (S)—N,2,3,3-tetramethylnorbornan-2-amine]
[1]
  MADRS item 1 Apparent Sadness: Adjusted Mean Change TC-5214—Placebo (SD): −0.88 (1.26)
  MADRS item 1 Apparent Sadness: Effect Size: 0.70
  MADRS item 2 Reported Sadness: Adjusted Mean Change TC-5214—Placebo (SD): −0.88 (1.28)
  MADRS item 2 Reported Sadness: Effect Size: 0.69
  MADRS item 3 Inner Tension: Adjusted Mean Change TC-5214—Placebo (SD): −0.79 (1.13)
  MADRS item 3 Inner Tension: Effect Size: 0.70
  MADRS item 4 Reduced Sleep: Adjusted Mean Change TC-5214—Placebo (SD): −0.99 (1.40)
  MADRS item 4 Reduced Sleep: Effect Size: 0.71
  MADRS item 5 Reduced Appetite: Adjusted Mean Change TC-5214—Placebo (SD): −0.76 (1.30)
  MADRS item 5 Reduced Appetite: Effect Size: 0.58
  MADRS item 6 Concentration Difficulties: Adjusted Mean Change TC-5214—Placebo (SD): −0.70 (1.20)
  MADRS item 6 Concentration Difficulties: Effect Size: 0.58
  MADRS item 7 Lassitude: Adjusted Mean Change TC-5214—Placebo (SD): −0.75 (1.20)
  MADRS item 7 Lassitude: Effect Size: 0.63
  MADRS item 8 Inability to Feel: Adjusted Mean Change TC-5214—Placebo (SD): −0.76 (1.25)
  MADRS item 8 Inability to Feel: Effect Size: 0.61
  MADRS item 9 Pessimistic Thoughts: Adjusted Mean Change TC-5214—Placebo (SD): −0.74 (1.18)
  MADRS item 9 Pessimistic Thoughts: Effect Size: 0.63
  MADRS item 10 Suicidal Thoughts: Adjusted Mean Change TC-5214—Placebo (SD): −0.29 (0.61)
  MADRS item 10 Suicidal Thoughts: Effect Size: 0.48
ITT, result in words
  each MADRS subscale score change from baseline compared with placebo: statistically significant decreases (improvements)
